{"source": "patent US20230228744A1", "about": "“DRY EYE DISEASE BIOMARKERS AND THEIR USE FOR TREATMENT” (Aldeyra Therapeutics, Inc., priority 2020, published 2023)", "tested_on": "subjects with dry eye disease", "experiment": "Phase 2/3 (TRANQUILITY) run-in cohort, dry eye signs and symptoms (environmental dosing and dry eye chamber)", "type": "in vivo, human", "experimental": "Changes over 24 hours after the first dose on Day 1 and changes over 90 minutes in the CAE will be assessed via mixed effect model for repeated measures (MMRM) of change from baseline (pre-dose Day 1), with baseline score as a covariate, and time and test article group as factors. For assessments that include both eyes, eye will be added as a factor.\nSchirmer's Test will be assessed via MMRM of change from baseline (screening), with baseline score as a covariate, and pre/post dose, eye, and test article group as factors.\nThis study is a Phase 2/3, multi-center, randomized, double-masked, parallel design, vehicle-controlled trial designed to evaluate the efficacy and safety of 0.25% Reproxalap Ophthalmic Solution compared to vehicle in subjects with dry eye disease. Approximately twenty subjects will be enrolled in the Initial Cohort, and approximately 300 subjects will be enrolled in the Main Cohort. Male and female subjects at least 18 years of age with a subject-reported history of dry eye disease in both eyes and meeting all other eligibility criteria will be randomized to receive reproxalap or vehicle in a 1:1 ratio (approximately 150 subjects in each treatment group).\nThis study uses a challenge-model of dry eye disease known as a “dry eye chamber.” Challenge-model trials utilizing a controlled chamber are an FDA accepted design for pivotal endpoints. See, for example, FDA published “Dry Eye: Developing Drugs for Treatment” draft guidance; December 2020.\nDry eye chambers control relative humidity, temperature, airflow, and visual tasking in order to stress the ocular surface. Chambers simulate a “bad day” scenario in the life of a dry eye disease sufferer. Trial designs utilizing chambers are able to confirm the utility of drugs with rapid onset of action during an acute ocular surface challenge.\nSecondary Endpoints: • Visual analog scale eye dryness score assessed over 24 hours after first dose on Day 1, and over 90 minutes in CAE® (Key Secondary Symptom Endpoint) • Ora Calibra® Ocular Discomfort Scale assessed over 24 hours after first dose on Day 1, and over 90 minutes in CAE® • Ocular Discomfort & 4-Symptom Questionnaire assessed over 24 hours after first dose on Day 1, and before and after CAE® • Ora Calibra® Conjunctival Allergen Challenge Ocular Itching Scale assessed over 24 hours after first dose on Day 1, and before and after CAE® • Schirmer's Test change from baseline before and after the final dose on Day 1 • Change in tear RASP levels before and after Dose 1 and 2 on Day 1 and Dose 3 on Day 2. Conjunctival redness over 24 hours after first dose on Day 1.\nVisit 1 (Day −14 −16/+2, Screening) • Informed Consent and HIPAA • Demographics (e.g. gender, date of birth, race, ethnicity) • Medical/Medication & Ocular History • Urine Pregnancy Test (as needed) • Symptom Questionnaires: • a. Ocular Discomfort & 4-Symptom Questionnaire • b. Ora Calibra® Ocular Discomfort Scale • c. Ocular Dryness Visual Analog Scale • d. Ora Calibra® Conjunctival Allergen Challenge Ocular Itching Scale • Visual Acuity (ETDRS) • Slit Lamp Biomicroscopy with Conjunctival Redness assessment • Fluorescein Staining using the Ora Calibra® Corneal and Conjunctival Staining Scale • Inclusion/Exclusion Criteria Review • In-Office Vehicle Instillation by trained site staff (within 10 minutes prior to CAE® entry) • CAE® Exposure (90 minutes, vehicle administration at 45 minutes) with: • a. Ocular Dryness Visual Analog Scale every 5 minutes • b. Ora Calibra® Ocular Discomfort Scale every 5 minutes • c. Conjunctival Redness Photography at 0, 5, 10, 15, 20, 30, 45 (before 45-minute dose), 50, 55, 60, 65, 75, 90 minutes (+/−2 minutes) via digital photography • Slit Lamp Biomicroscopy with Conjunctival Redness assessment • Schirmer Test • Intraocular Pressure • Dilated Exam • Schedule for Visit 2 […]", "key": {"[1]": {"details": "Day 1, 24 hours of QID dosing, N = 12, vehicle +0.1, P 0.006"}}, "data": [{"compound": "CC(C)(O)c1nc2ccc(Cl)cc2cc1N", "note": "[reproxalap, Reproxalap]", "values": [{"measurement": "Change From Baseline, OD4S: Dryness (0-5)", "setting": "[1]", "value": "−1.2"}, {"measurement": "Change From Baseline, OD4S: Grittiness (0-5)", "setting": "[1]", "value": "−1.1"}, {"measurement": "Change From Baseline, OD4S: Discomfort (0-5)", "setting": "Day 1, 24 hours of QID dosing, N = 12, vehicle +0.4, P 0.003", "value": "−0.7"}, {"measurement": "Change From Baseline, Ocular Discomfort Scale (0-4)", "setting": "Day 1, 24 hours of QID dosing, N = 12, vehicle +0.4, P 0.07", "value": "−0.7"}, {"measurement": "Change From Baseline, OD4S: Sting (0-5)", "setting": "Day 1, 24 hours of QID dosing, N = 12, vehicle +0.4, P 0.23", "value": "−0.1"}, {"measurement": "Change From Baseline, OD4S: Burn (0-5)", "setting": "Day 1, 24 hours of QID dosing, N = 12, vehicle +0.8, P 0.07", "value": "−0.1"}, {"measurement": "Change From Baseline, Schirmer's Test", "setting": "Day 1, improvement after a single dose, N = 12, vehicle +1.3, P 0.30", "value": "+3.4 mm"}, {"measurement": "Change From Baseline, VAS Dryness (0-100)", "setting": "after environmental dosing, Day 1, 24 hours of QID dosing, 0.25% reproxalap, N = 12, vehicle +2, P 0.003", "value": "−26"}, {"measurement": "onset of acute improvements in ocular symptoms and objective sign after administration", "setting": "dry eye chamber", "value": "within minutes"}, {"measurement": "Ocular Discomfort Score vs vehicle", "setting": "dry eye chamber, run-in cohort, p<0.0001", "value": "statistically significant improvement over vehicle"}, {"measurement": "VAS Ocular Dryness vs vehicle", "setting": "dry eye chamber, run-in cohort, p=0.001", "value": "statistically significant improvement over vehicle"}, {"measurement": "ocular redness vs vehicle", "setting": "dry eye chamber, run-in cohort, p=0.03", "value": "statistically significant improvement over vehicle"}]}]}
